Molecular target: T1, ENaC (Epithelial Sodium Channel), Mouse kidney M-1 cells (Mus musculus, UniProt Q61180+Q9WU38+Q9WU39)
T1 construct: Mouse kidney M-1 cells were cultivated in DMEM containing 5% FCS and 5 μM dexamethasone; endogenous in cells; host or cells: Mouse kidney M-1 cells (polarised on transwell filters, dexamethasone-treated)
T1 sequence (Q61180 1-699): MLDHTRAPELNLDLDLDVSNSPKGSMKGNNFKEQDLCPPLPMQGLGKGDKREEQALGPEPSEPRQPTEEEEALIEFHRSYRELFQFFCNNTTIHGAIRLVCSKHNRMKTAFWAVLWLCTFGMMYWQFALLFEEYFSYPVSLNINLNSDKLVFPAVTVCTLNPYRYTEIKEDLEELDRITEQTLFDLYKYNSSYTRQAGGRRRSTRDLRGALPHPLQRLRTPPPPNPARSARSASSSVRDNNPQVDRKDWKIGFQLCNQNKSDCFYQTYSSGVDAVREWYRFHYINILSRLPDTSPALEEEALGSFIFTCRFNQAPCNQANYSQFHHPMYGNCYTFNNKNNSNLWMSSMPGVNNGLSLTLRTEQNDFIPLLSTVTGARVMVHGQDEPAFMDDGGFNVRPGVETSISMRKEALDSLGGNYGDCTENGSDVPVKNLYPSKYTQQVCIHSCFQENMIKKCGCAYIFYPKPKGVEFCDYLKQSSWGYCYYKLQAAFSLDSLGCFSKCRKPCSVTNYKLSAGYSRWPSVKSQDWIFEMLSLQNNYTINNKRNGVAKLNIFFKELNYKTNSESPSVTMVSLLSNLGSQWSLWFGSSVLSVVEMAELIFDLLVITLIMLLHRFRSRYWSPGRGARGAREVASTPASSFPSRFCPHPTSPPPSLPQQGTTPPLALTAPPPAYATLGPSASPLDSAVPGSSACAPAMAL
T1 sequence (Q9WU38 1-638): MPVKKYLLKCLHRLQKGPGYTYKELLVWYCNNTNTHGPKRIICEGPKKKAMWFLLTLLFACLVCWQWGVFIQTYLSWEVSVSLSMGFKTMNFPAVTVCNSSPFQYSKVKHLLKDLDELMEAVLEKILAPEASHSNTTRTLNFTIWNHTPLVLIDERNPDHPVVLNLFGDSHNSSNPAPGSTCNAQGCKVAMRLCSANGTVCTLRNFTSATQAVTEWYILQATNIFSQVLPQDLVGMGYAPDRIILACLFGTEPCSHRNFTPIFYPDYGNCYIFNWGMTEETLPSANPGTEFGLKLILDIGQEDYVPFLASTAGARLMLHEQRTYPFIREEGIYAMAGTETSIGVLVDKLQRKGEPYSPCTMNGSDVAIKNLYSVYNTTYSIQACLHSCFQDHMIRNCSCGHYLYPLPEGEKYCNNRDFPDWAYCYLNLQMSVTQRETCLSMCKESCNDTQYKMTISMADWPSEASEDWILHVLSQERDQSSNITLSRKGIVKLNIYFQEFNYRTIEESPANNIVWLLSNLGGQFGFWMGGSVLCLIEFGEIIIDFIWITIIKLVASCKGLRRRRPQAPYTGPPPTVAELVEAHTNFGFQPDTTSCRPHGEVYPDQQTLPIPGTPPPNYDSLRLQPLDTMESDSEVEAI
T1 sequence (Q9WU39 1-655): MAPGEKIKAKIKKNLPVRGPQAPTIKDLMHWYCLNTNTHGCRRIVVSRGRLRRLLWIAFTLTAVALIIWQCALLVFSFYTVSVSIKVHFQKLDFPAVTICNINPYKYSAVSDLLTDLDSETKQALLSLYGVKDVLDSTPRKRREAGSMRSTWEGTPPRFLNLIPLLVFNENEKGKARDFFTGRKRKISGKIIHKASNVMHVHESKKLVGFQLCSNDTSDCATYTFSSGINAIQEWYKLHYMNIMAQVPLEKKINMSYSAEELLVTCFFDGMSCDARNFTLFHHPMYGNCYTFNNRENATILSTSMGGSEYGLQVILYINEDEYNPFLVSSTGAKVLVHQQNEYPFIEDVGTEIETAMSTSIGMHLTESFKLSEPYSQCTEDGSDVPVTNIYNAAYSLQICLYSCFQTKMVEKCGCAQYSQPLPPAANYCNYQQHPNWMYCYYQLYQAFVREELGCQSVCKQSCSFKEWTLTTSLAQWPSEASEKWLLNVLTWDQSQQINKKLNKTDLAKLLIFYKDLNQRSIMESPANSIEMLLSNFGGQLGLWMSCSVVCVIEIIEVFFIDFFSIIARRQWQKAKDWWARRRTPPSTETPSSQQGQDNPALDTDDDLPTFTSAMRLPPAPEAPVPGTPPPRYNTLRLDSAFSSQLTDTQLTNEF
Assay: Ussing Chamber assay: inhibition of amiloride sensitive short circuit current in M-1 cells
Format: cell-based
Settings: apical application, 37° C.
Procedure: Ussing Chamber: Mouse kidney M-1 cells were cultivated in DMEM containing 5% FCS and 5 μM dexamethasone for 10 to 12 days on polyester transwell filters. Filters were inserted into a teflon-coated well-plate which fit into the ussing chamber system. Prior to measurement the medium of M-1 cells was replaced with Caco-2 transport buffer (Invitrogen, Germany). During measurements, the Ussing chamber temperature was kept at 37° C. Short circuit currents (I_sc) were measured in the voltage-clamp mode with the software package Lab View for data acquisition and analysis. The transepithelial electrical resistance (TEER) was determined by the application of voltage steps of ±5 mV every 5 sec. Compounds were administered at a final concentration of 3 μM or at increasing concentrations (1-3-10 μM) to the apical solution. At the end of each experiment the amiloride sensitive I_SC was measured by adding 3 μM amiloride to the apical compartment. Results are expressed as inhibition in percent of the amiloride effect or as IC50.

SMILES | IC50
CC[n+]1c(CNC(=O)c2nc(Cl)c(N)nc2N)n(CC2(CO)COC2)c2cc(OC)ccc21 [Example 1.02] | 2 nM
CC[n+]1c(CNC(=O)c2nc(Cl)c(N)nc2N)n(CCOCCOCCNC(=O)c2nc(Cl)c(N)nc2N)c2cc(OC)ccc21 [Example 5.01] | 4 nM
CC[n+]1c(CNC(=O)c2nc(Cl)c(N)nc2N)n(CC2(CCc3ccccc3)CCN(C(=O)NC3CCN(C)CC3)CC2)c2ccccc21 [Example 10.01] | 2 nM
CCn1c(CNC(=O)c2nc(Cl)c(N)nc2N)[n+](CC(=O)NC)c2ccc(OC)cc21 [Example 3.14] | 2 nM
CC[n+]1c(CNC(=O)c2nc(Cl)c(N)nc2N)n(CCOCCOCCN)c2cc(OC)ccc21 [Example 6.02] | 4 nM
CCn1c(CNC(=O)c2nc(Cl)c(N)nc2N)[n+](CC(=O)NCCOC)c2ccc(OC)cc21 [Example 3.04] | 3 nM
CCn1c(CNC(=O)c2nc(Cl)c(N)nc2N)[n+](CC(=O)N(C)CCCN(C)C)c2ccc(OC)cc21 [Example 3.07] | 39 nM
CCn1c(CNC(=O)c2nc(Cl)c(N)nc2N)[n+](CC(=O)NC2CCNCC2)c2ccc(OC)cc21 [Example 6.03] | 17 nM
CCn1c(CNC(=O)c2nc(Cl)c(N)nc2N)[n+](CC(N)=O)c2ccc(OC)cc21 [Example 3.10] | 1 nM
COc1ccc2c(c1)[n+](CCF)c(CNC(=O)c1nc(Br)c(N)nc1N)n2CCOCCOCCO [Example 2.01] | 2 nM
CCn1c(CNC(=O)c2nc(Cl)c(N)nc2N)[n+](CC(=O)N(CCOC)CCOC)c2ccc(OC)cc21 [Example 3.01] | 10 nM
CCn1c(CNC(=O)c2nc(Cl)c(N)nc2N)[n+](CCNS(C)(=O)=O)c2ccc(OC)cc21 [Example 9.01] | 0.4 nM
CCn1c(CNC(=O)c2nc(Cl)c(N)nc2N)[n+](CC(=O)NCCCN(C)C(=O)OC(C)(C)C)c2ccc(OC)cc21 [Example 3.17] | 4 nM
C=CC[n+]1c(CNC(=O)c2nc(Cl)c(N)nc2N)n(CCOCCOCCO)c2ccc(OC)cc21 [Example 1.05] | 0.4 nM
CCn1c(CNC(=O)c2nc(Cl)c(N)nc2N)[n+](CC(=O)N2CCCN(C(=O)OC(C)(C)C)CC2)c2ccc(OC)cc21 [Example 3.21] | 28 nM
CCn1c(CNC(=O)c2nc(Cl)c(N)nc2N)[n+](CC(=O)N2CCC(N(C)C)CC2)c2ccc(OC)cc21 [Example 3.11] | 110 nM
CCn1c(CNC(=O)c2nc(Cl)c(N)nc2N)[n+](CC(=O)N2CCCNCC2)c2ccc(OC)cc21 [Example 6.04] | 63 nM
CCn1c(CNC(=O)c2nc(Cl)c(N)nc2N)[n+](CC(=O)N(CCO)CCO)c2ccc(OC)cc21 [Example 3.15] | 20 nM
CCn1c(CNC(=O)c2nc(Cl)c(N)nc2N)[n+](CC(=O)N2CCN(C)CC2)c2ccc(OC)cc21 [Example 3.05] | 12 nM
CCn1c(CNC(=O)c2nc(Cl)c(N)nc2N)[n+](CC(=O)N(C)CCN(C)C)c2ccc(OC)cc21 [Example 3.09] | 33 nM
CC[n+]1c(CNC(=O)c2nc(Cl)c(N)nc2N)n(CCOCCOCCNC(=O)OC(C)(C)C)c2cc(OC)ccc21 [Example 1.01] | 3 nM
COc1ccc2c(c1)n(CCF)c(CNC(=O)c1nc(Cl)c(N)nc1N)[n+]2CCOCCOCCO [Example 1.04] | 2 nM
CCNC(=O)C[n+]1c(CNC(=O)c2nc(Cl)c(N)nc2N)n(CC)c2cc(OC)ccc21 [Example 3.03] | 4 nM
CCn1c(CNC(=O)c2nc(Cl)c(N)nc2N)[n+](CCCC(=O)NCCN(C)C)c2ccc(OC)cc21 [Example 4.01] | 1 nM

Source: patent US9981954B2, “2-(pyrazin-2-ylcarbonylaminomethyl) benzimidazolium compounds as epithelial sodium channel inhibitors” (Boehringer Ingelheim International GmbH, priority 2015, dated 2018)
